Assay results published in patent publication US20100267561A1, “HERBICIDAL PYRIDAZINONE DERIVATIVES” (priority 2007, published 2010).
Where two headings read alike, the source gives them in different places.

Key:
Assay in all cases: Test B pre-/postemergence plant response
Type in all cases: in vivo
[1] = system: downy bromegrass (Bromus tectorum); conditions: Bromus tectorum, read-out: Plant response rating, Bromegrass, Downy; for pest or weed control at 16 g/ha: 16 g ai/ha; for pest or weed control at 31 g/ha: 31 g ai/ha, 100 complete control; for pest or weed control at 62 g/ha: 62 g ai/ha; for pest or weed control at 125 g/ha: 125 g ai/ha
In short: (§1)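 Preemergence and postemergence (plants 2-18 cm, 1- to 4-leaf stage) applications used test chemicals in a non-phytotoxic solvent with surfactant. Plants were held in a greenhouse 13 to 15 days, then rated visually against controls on a 0-100 scale (0 no effect, 100 complete control).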

[2] = system: common ragweed (Ambrosia elation); conditions: Ambrosia, read-out: Plant response rating, Ragweed; for pest or weed control at 16 g/ha: 16 g ai/ha; for pest or weed control at 31 g/ha: 31 g ai/ha, 100 complete control; for pest or weed control at 62 g/ha: 62 g ai/ha; for pest or weed control at 125 g/ha: 125 g ai/ha
In short: as §1

[3] = system: pigweed (Amaranthus retroflexus); conditions: Amaranthus retroflexus, post-emergence, Postemergence, read-out: Plant response rating, Pigweed
In short: as §1

[4] = system: large crabgrass (Digitaria sanguinalis); conditions: Digitaria sanguinalis, read-out: Plant response rating, Crabgrass, Large; for pest or weed control at 16 g/ha: 16 g ai/ha; for pest or weed control at 31 g/ha: 31 g ai/ha, 100 complete control; for pest or weed control at 62 g/ha: 62 g ai/ha; for pest or weed control at 125 g/ha: 125 g ai/ha
In short: as §1

soybean (Glycine max) = conditions: Glycine max, read-out: Plant response rating, Soybean; for plant injury at 16 g/ha: 16 g ai/ha; for plant injury at 31 g/ha: 31 g ai/ha, 100 complete control; for plant injury at 62 g/ha: 62 g ai/ha; for plant injury at 125 g/ha: 125 g ai/ha
In short: as §1

[5] = system: cocklebur (Xanthium strumarium); conditions: Xanthium strumarium, read-out: Plant response rating, Cocklebur; for pest or weed control at 62 g/ha: 62 g ai/ha; for pest or weed control at 125 g/ha: 125 g ai/ha
In short: as §1

[6] = system: catchweed bedstraw (Galium aparine); conditions: Galium aparine, pre-emergence, Preemergence, read-out: Plant response rating, Galium
In short: as §1

[7] = system: Italian ryegrass (Lolium multiflorum); conditions: Lolium multiflorum, read-out: Plant response rating, Ryegrass, Italian; for pest or weed control at 16 g/ha: 16 g ai/ha; for pest or weed control at 31 g/ha: 31 g ai/ha, 100 complete control; for pest or weed control at 62 g/ha: 62 g ai/ha; for pest or weed control at 125 g/ha: 125 g ai/ha
In short: as §1

[8] = system: surinam grass (Brachiaria decumbens); conditions: Urochloa decumbens, read-out: Plant response rating, Surinam Grass; for pest or weed control at 16 g/ha: 16 g ai/ha; for pest or weed control at 31 g/ha: 31 g ai/ha, 100 complete control; for pest or weed control at 62 g/ha: 62 g ai/ha; for pest or weed control at 125 g/ha: 125 g ai/ha
In short: as §1

kochia (Kochia scoparia) = conditions: Postemergence
In short: as §1

[9] = system: common (oilseed) sunflower (Helianthus annuus); conditions: Helianthus annuus, pre-emergence, Preemergence, read-out: Plant response rating, Sunflower
In short: as §1

[10] = system: goosegrass (Eleusine indica); conditions: Eleusine indica, read-out: Plant response rating, Goosegrass; for pest or weed control at 16 g/ha: 16 g ai/ha; for pest or weed control at 31 g/ha: 31 g ai/ha, 100 complete control; for pest or weed control at 62 g/ha: 62 g ai/ha; for pest or weed control at 125 g/ha: 125 g ai/ha
In short: as §1

[11] = system: woolly cupgrass (Eriochloa villosa); conditions: Eriochloa villosa, read-out: Plant response rating, Cupgrass, Woolly; for pest or weed control at 16 g/ha: 16 g ai/ha; for pest or weed control at 31 g/ha: 31 g ai/ha, 100 complete control; for pest or weed control at 62 g/ha: 62 g ai/ha; for pest or weed control at 125 g/ha: 125 g ai/ha
In short: as §1

[12] = post-emergence, Postemergence, scale 0 to 100
[13] = post-emergence, Postemergence, scale 0 to 100, 0 no effect
[14] = pre-emergence, Preemergence, scale 0 to 100 (0 no effect, 100 complete control)
[15] = pre-emergence, Preemergence, 0 to 100 scale, 0 no effect
[16] = pre-emergence, Preemergence, scale 0 to 100
[17] = 31 g ai/ha, scale 0 to 100, 0 no effect, 100 complete control
[18] = 16 g ai/ha, scale 0 to 100 (0 no effect, 100 complete control)
[19] = 31 g ai/ha, 0 to 100 scale, 0 no effect, 100 complete control

`CCc1cc(-c2ccc(C(F)(F)F)cc2)nn1-c1c(O)cnn(C)c1=O` [Compound 11, 4-[5-ethyl-3-[4-(trifluoromethyl)phenyl]-1H-pyrazol-1-yl]-5-hydroxy-2-methyl-3(2H)-pyridazinone] gave a pest or weed control at 16 g/ha [1, 12] of 85%, a pest or weed control at 31 g/ha [1, 13] of 90% and a pest or weed control at 62 g/ha [1, 12] of 98%. The pest or weed control at 125 g/ha [1, 12] was 100%, the pest or weed control at 16 g/ha [1, 14] was 50% and the pest or weed control at 31 g/ha [1, 15] was 95%. For the same compound, the pest or weed control at 62 g/ha [1, 16] was 98%, the pest or weed control at 125 g/ha [1, 16] was 100% and the pest or weed control at 16 g/ha [2, 12] was 0%. For the same compound, the pest or weed control at 31 g/ha [2, 13] was 0%, the pest or weed control at 62 g/ha [2, 12] was 0% and the pest or weed control at 125 g/ha [2, 12] was 0%. For the same compound, the pest or weed control at 16 g/ha [2, 14] was 0%, the pest or weed control at 31 g/ha [2, 15] was 0% and the pest or weed control at 62 g/ha [2, 16] was 0%. For the same compound, the pest or weed control at 125 g/ha [2, 16] was 0%, the pest or weed control at 16 g/ha ([3]; 16 g ai/ha, scale 0 to 100) was 0% and the pest or weed control at 31 g/ha [3, 17] was 0%. It also gave a pest or weed control at 62 g/ha ([3]; 62 g ai/ha, scale 0 to 100) of 0%, a pest or weed control at 125 g/ha ([3]; 125 g ai/ha, scale 0 to 100) of 5% and a pest or weed control at 16 g/ha [4, 12] of 98%. It also gave a pest or weed control at 31 g/ha [4, 13] of 100%, a pest or weed control at 62 g/ha [4, 12] of 100% and a pest or weed control at 125 g/ha [4, 12] of 100%. The pest or weed control at 16 g/ha [4, 14] was 90%, the pest or weed control at 31 g/ha [4, 15] was 90% and the pest or weed control at 62 g/ha [4, 16] was 100%. It also gave a pest or weed control at 125 g/ha [4, 16] of 100%, a plant injury at 16 g/ha (soybean (Glycine max); [12]) of 0% and a plant injury at 31 g/ha (soybean (Glycine max); [13]) of 0%. For the same compound, the plant injury at 62 g/ha (soybean (Glycine max); [12]) was 0%, the plant injury at 125 g/ha (soybean (Glycine max); [12]) was 0% and the plant injury at 16 g/ha (soybean (Glycine max); [14]) was 0%. The plant injury at 31 g/ha (soybean (Glycine max); [15]) was 0%, the plant injury at 62 g/ha (soybean (Glycine max); [16]) was 0% and the plant injury at 125 g/ha (soybean (Glycine max); [16]) was 0%. For the same compound, the pest or weed control at 16 g/ha ([5]; post-emergence, Postemergence, 16 g ai/ha, scale 0 to 100) was 0%, the pest or weed control at 31 g/ha ([5]; post-emergence, Postemergence, 31 g ai/ha, scale 0 to 100, 0 no effect, 100 complete control) was 0% and the pest or weed control at 62 g/ha [5, 12] was 0%. For the same compound, the pest or weed control at 125 g/ha [5, 12] was 0%, the pest or weed control at 62 g/ha [5, 16] was 0% and the pest or weed control at 125 g/ha [5, 16] was 0%. The pest or weed control at 16 g/ha [6, 18] was 0%, the pest or weed control at 31 g/ha [6, 19] was 0% and the pest or weed control at 62 g/ha ([6]; 62 g ai/ha, scale 0 to 100) was 0%. The pest or weed control at 125 g/ha ([6]; 125 g ai/ha, scale 0 to 100) was 0%, the pest or weed control at 16 g/ha [7, 12] was 100% and the pest or weed control at 31 g/ha [7, 13] was 100%. For the same compound, the pest or weed control at 62 g/ha [7, 12] was 100%, the pest or weed control at 125 g/ha [7, 12] was 100% and the pest or weed control at 16 g/ha [7, 14] was 90%. For the same compound, the pest or weed control at 31 g/ha [7, 15] was 100%, the pest or weed control at 62 g/ha [7, 16] was 100% and the pest or weed control at 125 g/ha [7, 16] was 100%. For the same compound, the pest or weed control at 16 g/ha [8, 12] was 100%, the pest or weed control at 31 g/ha [8, 13] was 100% and the pest or weed control at 62 g/ha [8, 12] was 100%. For the same compound, the pest or weed control at 125 g/ha [8, 12] was 100%, the pest or weed control at 16 g/ha [8, 14] was 100% and the pest or weed control at 31 g/ha [8, 15] was 100%. For the same compound, the pest or weed control at 62 g/ha [8, 16] was 100%, the pest or weed control at 125 g/ha [8, 16] was 100% and the “Plant response rating, Kochia” value (kochia (Kochia scoparia); 16 g ai/ha, scale 0 to 100) was 0. The “Plant response rating, Kochia” value (kochia (Kochia scoparia); [17]) was 0, the “Plant response rating, Kochia” value (kochia (Kochia scoparia); 62 g ai/ha, scale 0 to 100) was 0 and the “Plant response rating, Kochia” value (kochia (Kochia scoparia); 125 g ai/ha, scale 0 to 100) was 0. For the same compound, the pest or weed control at 16 g/ha [9, 18] was 0%, the pest or weed control at 31 g/ha [9, 19] was 0% and the pest or weed control at 62 g/ha ([9]; 62 g ai/ha, scale 0 to 100) was 0%. For the same compound, the pest or weed control at 125 g/ha ([9]; 125 g ai/ha, scale 0 to 100) was 0%, the pest or weed control at 16 g/ha [10, 12] was 100% and the pest or weed control at 31 g/ha [10, 13] was 100%. The pest or weed control at 62 g/ha [10, 12] was 100%, the pest or weed control at 125 g/ha [10, 12] was 100% and the pest or weed control at 16 g/ha [10, 14] was 85%. The pest or weed control at 31 g/ha [10, 15] was 90%, the pest or weed control at 62 g/ha [10, 16] was 100% and the pest or weed control at 125 g/ha [10, 16] was 100%. The pest or weed control at 16 g/ha [11, 12] was 95%, the pest or weed control at 31 g/ha [11, 13] was 100% and the pest or weed control at 62 g/ha [11, 12] was 100%. For the same compound, the pest or weed control at 125 g/ha [11, 12] was 100%, the pest or weed control at 16 g/ha [11, 14] was 100% and the pest or weed control at 31 g/ha [11, 15] was 100%. The pest or weed control at 62 g/ha [11, 16] was 100% and the pest or weed control at 125 g/ha [11, 16] was 100%.
